# Assay results reported in paper PMC2906235 (The Journal of organic chemistry, 2010).
# pIC50: −log10 of the molar value. Like-named read-outs stand apart in the source and are kept apart here.
# Experiments:
# [1] = test system: MOLM-13 acute myeloid leukemia cell line; test: MOLM-13 cell growth inhibition assay; format: cell-based
# [2] = test system: Kasumi-1 acute myeloid leukemia cell line; test: Kasumi-1 cell growth inhibition assay; format: cell-based; conditions: read-out: Kasumi-1 IC50
# [3] = target: recombinant human Hsp90 (Hsp90α) (Homo sapiens, UniProt P07900); test: Competitive binding to recombinant human Hsp90; conditions: relative to control 17-AAG
# oncostatin M signaling = conditions: cited from earlier work
# [4] = test system: Hsp90 derived from MDA-MB-468 breast cancer cell lysate; test: Competitive binding assay to Hsp90 from MDA-MB-468 breast cancer cell lysate
# [5] = test system: human histiocytic lymphoma U-937; conditions: U-937 cells; cited from earlier work
# [6] = read-out: MOLM-13 IC50, cell growth inhibition, MOLM-13
structure (smiles),measurement,setting,value
"C=CCNC1=C2C[C@@H](C)C[C@H](OC)[C@H](O)[C@@H](C)/C=C(\C)[C@H](OC(N)=O)[C@@H](OC)/C=C\C=C(/C)C(=O)NC(=CC1=O)C2=O [17-AAG (4), 17-allylamino-17-demethoxygeldanamycin, reference compound]",pIC50,[1]; [6],7.05
same,pIC50,"[1]; read-out: MOLM-13 IC50, cell growth inhibition, MOLM-13, listed as 17-AAG 4",~7.05
same,pIC50,[2],6.32
"CO[C@H]1C[C@H](C)Cc2cc(O)cc(c2)NC(=O)/C(C)=C/CC[C@H](OC)[C@@H](OC(N)=O)/C(C)=C/[C@H](C)[C@H]1O [autolytimycin (2), Autolytimycin]",Fold higher Hsp90 affinity than 17-AAG,[3],4 fold
same,Fold higher Hsp90 affinity than 17-AAG,[3]; listed as autolytimycin 2,about 4 fold
same,Activity in cell based oncostatin M signaling assay,oncostatin M signaling,exhibit activity
same,pIC50,[1]; [6],~6.29
same,pIC50,"[1]; read-out: MOLM-13 IC50, cell growth inhibition, MOLM-13, listed as autolytimcyin (2)",6.29
same,pIC50,[2],6.55
"COc1c(O)cc2cc1C[C@@H](C)C[C@H](OC)[C@H](O)[C@@H](C)/C=C(\C)[C@H](OC(N)=O)[C@@H](OC)CC/C=C(\C)C(=O)N2 [reblastatin (1), reblastatin]",Competitive binding (nanomolar activity) to Hsp90,[4]; Hsp90 from MDA-MB-468 breast cancer cell lysate,7.34 nM
same,Fold enhanced activity over geldanamycin,[4]; MDA-MB-468 lysate competitive binding,4 fold
same,Fold higher Hsp90 affinity than 17-AAG,[3],4 fold
same,Fold higher Hsp90 affinity than 17-AAG,[3]; listed as reblastatin 1,about 4 fold
same,pIC50,"oncostatin M signaling; read-out: IC50, oncostatin M signaling assay, cell-based",6.80
same,pIC50,"[1]; Homo sapiens, MOLM-13, read-out: MOLM-13 IC50, cell growth inhibition, MOLM-13",~6.57
same,Fold less active than 17-AAG,[1]; MOLM-13 cell line,3 fold
same,"IC50, inhibition of proliferation",[5],0.43 µg/mL
